Patent publication US8093393B2, “Cationic ceramides, and analogs thereof, and their use for preventing or treating cancer” (MUSC Foundation for Research Development, priority 2004, dated 2012)
Like-named read-outs stand apart in the source and are kept apart here.

Key:
[1] = test system: MCF7 breast carcinoma cells; assay: Cell proliferation and viability, Trypan blue exclusion assay; assay type: cell-based; conditions: 48 h
Procedure, shortened: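 Cells seeded overnight in 10% FCS, then exposed to LCL compounds at 0-20 μM in ethanol (below 0.1%) for 48 h. Viable cell numbers counted by Trypan blue exclusion under light microscope, expressed as percentage of untreated controls; duplicate samples, two or three independent experiments.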

[2] = test system: UM-SCC-22A cells; assay: MTT cell survival assay and isobologram studies; assay type: cell-based, human; conditions: for IC50: UM-SCC-22A, read-out: IC50, cell growth
Protocol: Human head and neck cancer cell lines UM-SCC-1 (retromolar trigone/floor of the mouth), UM-SCC-12 (primary tumor of larynx), and UM-SCC-22A cells were obtained from clinical samples. Cells were grown in DMEM containing 10% FCS and 1% penicillin/streptomycin at 37° C. in 5% CO2.
MTT cell survival assay and isobologram studies. The concentrations of agents that inhibited cell growth by 50% (IC50) were determined from cell survival plots obtained by MTT. Triplicate wells were used for each treatment. The final concentration of DMSO (a solvent for conventional ceramides, GMZ and DOX) in the growth medium was less than 0.1% (v/v) which has no effect on cell growth and survival. Pyridinium ceramides were dissolved in sterile water or growth medium. In short, after cells (5-10×10^3/well) were seeded in 96-well-plates for 24 hr, they were treated with increasing concentrations of ceramide analogs for an additional 48 or 96 hr. For combination treatments, ceramides and chemotherapeutic agents (gemcitabine (GMZ) or doxorubicin (DOX)) were added to the growth medium simultaneously during treatment. Isobologram plots were then constructed using IC50 values of the two agents alone or in combination obtained from MTT assays. A straight line joining points on x- and y-axes represent the IC50 concentrations of two agents, and the points representing the IC50 concentrations of the combination of the two agents are represented as scatter plots on the same graphs. In general, the points that fall within the left of the straight line indicate synergism. The experiments were performed as triplicates in at least 3 independent experiments.
Human head and neck cancer cell lines UM-SCC-1 (retromolar trigone/floor of the mouth), UM-SCC-14A (SCC of anterior floor of the mouth), and UM-SCC-22A (SCC of hypopharynx) cells were obtained. Cells were grown in DMEM containing 10% FCS and 1% penicillin/streptomycin at 37° C. in 5% CO2.
MTT cell survival assay and isobologram studies. The concentrations of agents that inhibited cell growth by 50% (IC50) were determined from cell survival plots obtained by MTT assays. […] In general, the points that fall within the left of the straight line indicate synergism. The experiments were performed as triplicates in at least 3 independent experiments. Error bars represent standard deviations.

CCCCCCCCCCCCC/C=C/[C@H](O)[C@H](CO)NC(=O)CCCCC[n+]1ccccc1.[Br-] [LCL124, L-threo-2-N-[6′-(1″-Pyridinium)-hexanoyl]-sphingosine Bromide]
inhibitory effect on MCF7 cell growth (in words) [1]: caused inhibitory effect on MCF7 cell growth
interaction with GMZ, isobologram ([2]; UM-SCC-22A, 100, 250 and 500 nM with GMZ, 48 hr): decreased growth synergistically
IC50 ([2]; 48 hr, listed as L-t-C6-Pyr-Cer): 1 to 2 µM
IC50 ([2]; 48 hr, listed as L-th-C6-Pyr-Cer): ~1 µM
IC50 ([2]; 96 hr, DMEM, listed as L-th-C6-Pyr-Cer): ~0.3 µM
